Experimental findings from patent US12275731B2, “Azaindole inhibitors of wild-type and mutant forms of LRRK2” (DANA-FARBER CANCER INSTITUTE, INC., priority 2018, dated 2025) are described below.

Molecules are shown by their SMILES.

Common to all, as to assay: KinomeScan profiling
Assay type in all cases: binding

The target in one assay is T1, AMPK-alpha1 (Homo sapiens, UniProt Q13131).
T1 construct: purchased KinomeScan®
Conditions: AMPK-alpha1, 1 μM; read-out: % control. Summed up:
(§1)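 Percent-of-control values derive from RLU, calculated as (test − positive)/(negative − positive) × 100, where DMSO defines 100% and a positive control compound defines 0%. Each compound was tested at 1 μM in the 468-kinase panel; sub-35% readings indicate activity.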

For a further assay, the target named is FGFR3 (Homo sapiens, UniProt P22607). Conditions: FGFR3, 1 μM; read-out: % control. In outline: as §1
For a further assay, the target named is NDR2 (Homo sapiens, UniProt Q9Y2H1). Conditions: NDR2, 1 μM; read-out: % control. In outline:
as §1

In the next assay the target is T2, PIK4CB (Homo sapiens, UniProt Q9UBF8).
T2 construct: purchased KinomeScan® (panel service)
The settings on record: read-out: % control. Summed up:
as §1

A further assay has as its target CDK2 (Homo sapiens, UniProt P24941). Conditions: CDK2, 1 μM; read-out: % control. Summed up:
as §1

The target in assay [1] is T3, RPS6KA4(Kin.Dom.1-N-terminal) (Homo sapiens, UniProt O75676).
T3 construct: RPS6KA4(Kin.Dom.1-N-terminal)
T3 sequence (O75676 33-301 limits assumed): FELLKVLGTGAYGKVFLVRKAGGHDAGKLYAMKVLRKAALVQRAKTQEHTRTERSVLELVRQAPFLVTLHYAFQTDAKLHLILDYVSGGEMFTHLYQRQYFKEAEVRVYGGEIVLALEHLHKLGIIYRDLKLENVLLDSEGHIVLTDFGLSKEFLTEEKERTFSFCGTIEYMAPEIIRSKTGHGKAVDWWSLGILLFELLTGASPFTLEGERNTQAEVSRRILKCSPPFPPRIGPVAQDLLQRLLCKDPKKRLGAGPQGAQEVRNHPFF
Conditions: read-out: % control. In outline: as §1

The target in another assay is T4, KIT(V559D, T670I) (Homo sapiens, UniProt P10721, T670I/V559D).
T4 construct: purchased KinomeScan®
T4 sequence (P10721 26-976 V559D/T670I): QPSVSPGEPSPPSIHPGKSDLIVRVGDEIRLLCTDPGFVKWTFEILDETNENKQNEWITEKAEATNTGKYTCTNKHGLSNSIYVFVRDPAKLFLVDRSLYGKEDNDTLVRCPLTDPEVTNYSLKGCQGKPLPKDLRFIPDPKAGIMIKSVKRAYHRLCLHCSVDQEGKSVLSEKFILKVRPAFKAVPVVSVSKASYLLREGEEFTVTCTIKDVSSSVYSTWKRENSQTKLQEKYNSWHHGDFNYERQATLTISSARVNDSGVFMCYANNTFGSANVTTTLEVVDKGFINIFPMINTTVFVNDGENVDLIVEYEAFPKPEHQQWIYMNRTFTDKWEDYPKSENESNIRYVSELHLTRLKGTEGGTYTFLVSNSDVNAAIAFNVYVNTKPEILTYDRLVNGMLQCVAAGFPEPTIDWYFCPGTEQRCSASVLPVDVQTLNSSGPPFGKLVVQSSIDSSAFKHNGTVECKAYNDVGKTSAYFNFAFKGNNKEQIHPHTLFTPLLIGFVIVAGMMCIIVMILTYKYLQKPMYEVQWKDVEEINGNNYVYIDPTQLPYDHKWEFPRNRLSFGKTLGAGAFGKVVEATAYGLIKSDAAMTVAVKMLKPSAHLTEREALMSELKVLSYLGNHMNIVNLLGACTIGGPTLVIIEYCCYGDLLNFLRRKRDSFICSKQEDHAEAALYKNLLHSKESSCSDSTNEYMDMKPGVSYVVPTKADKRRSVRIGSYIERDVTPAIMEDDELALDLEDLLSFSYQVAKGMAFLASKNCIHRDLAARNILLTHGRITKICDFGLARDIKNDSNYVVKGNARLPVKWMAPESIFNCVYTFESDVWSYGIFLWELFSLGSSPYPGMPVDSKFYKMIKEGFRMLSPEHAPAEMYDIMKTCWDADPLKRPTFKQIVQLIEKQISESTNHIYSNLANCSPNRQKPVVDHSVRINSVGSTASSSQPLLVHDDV
Conditions: read-out: % control. Summed up:
as §1

The next assay deals with MET(Y1235D) (Homo sapiens, UniProt P08581, Y1235D). Conditions: read-out: % control. In outline: as §1
The target in the next assay is CDC2L5 (Homo sapiens, UniProt Q14004). The settings on record: CDC2L5, 1 μM; read-out: % control. Summed up: as §1
CDC2L5, sequence (Q14004 whole entry): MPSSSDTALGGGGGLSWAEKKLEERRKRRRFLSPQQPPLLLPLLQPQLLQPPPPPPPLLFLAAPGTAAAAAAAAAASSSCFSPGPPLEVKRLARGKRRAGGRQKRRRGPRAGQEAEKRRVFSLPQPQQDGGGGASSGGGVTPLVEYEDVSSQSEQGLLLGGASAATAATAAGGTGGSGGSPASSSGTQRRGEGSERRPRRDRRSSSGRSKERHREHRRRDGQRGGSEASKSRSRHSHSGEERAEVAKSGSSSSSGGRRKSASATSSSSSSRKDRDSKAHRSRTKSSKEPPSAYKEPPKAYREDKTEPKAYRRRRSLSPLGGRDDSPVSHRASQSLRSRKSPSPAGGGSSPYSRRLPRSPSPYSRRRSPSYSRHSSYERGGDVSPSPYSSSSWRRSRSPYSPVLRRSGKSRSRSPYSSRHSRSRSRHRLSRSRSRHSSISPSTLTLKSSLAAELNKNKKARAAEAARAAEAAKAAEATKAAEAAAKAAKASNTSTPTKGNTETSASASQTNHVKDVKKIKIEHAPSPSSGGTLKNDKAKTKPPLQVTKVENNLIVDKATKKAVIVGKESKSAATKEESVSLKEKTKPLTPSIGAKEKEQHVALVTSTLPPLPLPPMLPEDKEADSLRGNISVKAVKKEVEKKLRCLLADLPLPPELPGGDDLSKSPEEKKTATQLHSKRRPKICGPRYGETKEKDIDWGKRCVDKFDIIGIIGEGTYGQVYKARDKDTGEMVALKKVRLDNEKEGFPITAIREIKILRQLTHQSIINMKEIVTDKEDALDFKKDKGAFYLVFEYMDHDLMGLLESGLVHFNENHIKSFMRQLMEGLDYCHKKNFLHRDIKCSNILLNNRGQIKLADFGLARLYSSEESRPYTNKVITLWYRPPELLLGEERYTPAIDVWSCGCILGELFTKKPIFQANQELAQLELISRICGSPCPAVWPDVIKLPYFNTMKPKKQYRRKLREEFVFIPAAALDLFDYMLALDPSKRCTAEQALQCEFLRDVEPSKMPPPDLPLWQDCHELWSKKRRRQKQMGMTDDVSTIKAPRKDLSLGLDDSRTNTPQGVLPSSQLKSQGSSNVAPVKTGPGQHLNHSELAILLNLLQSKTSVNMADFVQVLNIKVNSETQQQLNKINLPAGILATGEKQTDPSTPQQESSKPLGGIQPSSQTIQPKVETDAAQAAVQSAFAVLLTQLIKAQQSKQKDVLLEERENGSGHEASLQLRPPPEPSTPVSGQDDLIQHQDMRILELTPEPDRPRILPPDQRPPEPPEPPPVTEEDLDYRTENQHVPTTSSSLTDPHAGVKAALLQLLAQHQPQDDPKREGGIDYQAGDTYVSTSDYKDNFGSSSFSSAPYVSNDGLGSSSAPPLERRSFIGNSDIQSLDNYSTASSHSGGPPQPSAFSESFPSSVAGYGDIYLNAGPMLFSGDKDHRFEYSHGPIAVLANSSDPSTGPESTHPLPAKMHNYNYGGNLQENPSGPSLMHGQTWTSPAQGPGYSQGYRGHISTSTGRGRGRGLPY
Another assay deals with T5, PIK3CA(I800L) (Homo sapiens, UniProt P42336, I800L).
T5 construct: purchased KinomeScan® (panel service)
T5 sequence (P42336 whole entry I800L): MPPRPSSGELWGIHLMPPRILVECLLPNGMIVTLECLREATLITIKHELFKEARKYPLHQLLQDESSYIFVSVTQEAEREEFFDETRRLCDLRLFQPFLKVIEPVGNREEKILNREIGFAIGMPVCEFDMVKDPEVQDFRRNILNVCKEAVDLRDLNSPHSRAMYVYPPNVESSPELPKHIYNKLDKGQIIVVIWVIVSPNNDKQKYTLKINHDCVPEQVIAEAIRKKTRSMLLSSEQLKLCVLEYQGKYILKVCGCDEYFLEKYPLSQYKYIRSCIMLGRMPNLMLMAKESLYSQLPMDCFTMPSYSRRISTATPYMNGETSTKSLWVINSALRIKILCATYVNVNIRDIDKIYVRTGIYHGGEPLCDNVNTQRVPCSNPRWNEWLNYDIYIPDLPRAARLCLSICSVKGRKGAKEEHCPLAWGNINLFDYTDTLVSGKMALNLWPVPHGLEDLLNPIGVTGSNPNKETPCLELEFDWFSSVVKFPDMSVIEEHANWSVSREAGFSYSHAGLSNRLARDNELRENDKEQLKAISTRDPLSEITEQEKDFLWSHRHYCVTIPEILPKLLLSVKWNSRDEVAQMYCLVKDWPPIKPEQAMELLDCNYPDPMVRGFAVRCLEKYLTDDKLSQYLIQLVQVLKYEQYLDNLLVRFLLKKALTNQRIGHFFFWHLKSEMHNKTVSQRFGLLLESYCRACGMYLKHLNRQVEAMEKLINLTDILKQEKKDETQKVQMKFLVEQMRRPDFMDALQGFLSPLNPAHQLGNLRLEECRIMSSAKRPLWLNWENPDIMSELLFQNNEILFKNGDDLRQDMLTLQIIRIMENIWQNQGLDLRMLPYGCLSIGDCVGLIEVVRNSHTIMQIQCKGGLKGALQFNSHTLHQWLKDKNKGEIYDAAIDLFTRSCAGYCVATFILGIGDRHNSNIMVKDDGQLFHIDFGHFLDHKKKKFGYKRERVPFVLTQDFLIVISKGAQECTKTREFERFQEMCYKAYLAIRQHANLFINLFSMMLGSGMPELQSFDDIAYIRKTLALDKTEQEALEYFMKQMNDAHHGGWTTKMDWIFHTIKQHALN
The settings on record: read-out: % control. In outline:
as §1

A further assay has as its target T6, DDR2 (Homo sapiens, UniProt Q16832).
T6 sequence (Q16832 22-855): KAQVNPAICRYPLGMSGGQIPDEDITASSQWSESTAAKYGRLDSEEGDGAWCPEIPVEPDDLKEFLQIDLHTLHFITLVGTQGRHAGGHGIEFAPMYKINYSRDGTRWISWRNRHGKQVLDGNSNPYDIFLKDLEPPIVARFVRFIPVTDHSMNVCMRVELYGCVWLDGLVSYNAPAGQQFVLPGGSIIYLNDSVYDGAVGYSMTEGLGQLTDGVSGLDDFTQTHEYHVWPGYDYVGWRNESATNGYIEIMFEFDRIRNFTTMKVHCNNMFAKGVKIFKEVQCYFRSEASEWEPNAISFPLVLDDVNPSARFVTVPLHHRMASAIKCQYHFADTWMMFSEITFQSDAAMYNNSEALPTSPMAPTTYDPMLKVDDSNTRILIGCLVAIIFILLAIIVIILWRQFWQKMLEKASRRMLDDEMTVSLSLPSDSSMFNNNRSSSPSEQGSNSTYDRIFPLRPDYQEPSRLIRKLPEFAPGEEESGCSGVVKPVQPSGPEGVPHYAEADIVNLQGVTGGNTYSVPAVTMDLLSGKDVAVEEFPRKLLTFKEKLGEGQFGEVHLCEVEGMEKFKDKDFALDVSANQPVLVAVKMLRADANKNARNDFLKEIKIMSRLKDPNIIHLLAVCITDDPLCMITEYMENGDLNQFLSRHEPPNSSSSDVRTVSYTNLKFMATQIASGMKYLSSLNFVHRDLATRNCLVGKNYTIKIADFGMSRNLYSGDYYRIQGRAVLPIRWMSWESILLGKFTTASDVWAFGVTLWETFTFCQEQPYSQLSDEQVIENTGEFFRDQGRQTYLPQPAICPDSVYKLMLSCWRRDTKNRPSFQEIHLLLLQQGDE
Conditions: DDR2, 1 μM; read-out: % control. In outline: as §1

The next assay deals with CAMK2D (Homo sapiens, UniProt Q13557). Conditions: read-out: % control. Summed up:
as §1

A further assay has as its target MST1R (Homo sapiens, UniProt Q04912). Conditions: read-out: % control. Summed up: as §1

NDR2, sequence (Q9Y2H1 whole entry): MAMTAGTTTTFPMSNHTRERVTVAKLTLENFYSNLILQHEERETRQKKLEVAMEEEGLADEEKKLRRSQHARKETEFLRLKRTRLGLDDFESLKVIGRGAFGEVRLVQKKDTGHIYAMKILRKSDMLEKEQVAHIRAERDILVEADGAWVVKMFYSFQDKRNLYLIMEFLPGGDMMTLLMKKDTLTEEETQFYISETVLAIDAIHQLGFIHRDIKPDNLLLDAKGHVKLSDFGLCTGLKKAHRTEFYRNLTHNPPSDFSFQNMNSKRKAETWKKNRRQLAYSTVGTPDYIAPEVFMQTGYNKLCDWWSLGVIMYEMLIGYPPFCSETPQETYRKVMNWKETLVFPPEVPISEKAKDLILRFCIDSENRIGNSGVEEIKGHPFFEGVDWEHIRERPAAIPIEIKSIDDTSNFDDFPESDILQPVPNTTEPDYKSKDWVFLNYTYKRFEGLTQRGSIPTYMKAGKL
T1 sequence (Q13131 whole entry): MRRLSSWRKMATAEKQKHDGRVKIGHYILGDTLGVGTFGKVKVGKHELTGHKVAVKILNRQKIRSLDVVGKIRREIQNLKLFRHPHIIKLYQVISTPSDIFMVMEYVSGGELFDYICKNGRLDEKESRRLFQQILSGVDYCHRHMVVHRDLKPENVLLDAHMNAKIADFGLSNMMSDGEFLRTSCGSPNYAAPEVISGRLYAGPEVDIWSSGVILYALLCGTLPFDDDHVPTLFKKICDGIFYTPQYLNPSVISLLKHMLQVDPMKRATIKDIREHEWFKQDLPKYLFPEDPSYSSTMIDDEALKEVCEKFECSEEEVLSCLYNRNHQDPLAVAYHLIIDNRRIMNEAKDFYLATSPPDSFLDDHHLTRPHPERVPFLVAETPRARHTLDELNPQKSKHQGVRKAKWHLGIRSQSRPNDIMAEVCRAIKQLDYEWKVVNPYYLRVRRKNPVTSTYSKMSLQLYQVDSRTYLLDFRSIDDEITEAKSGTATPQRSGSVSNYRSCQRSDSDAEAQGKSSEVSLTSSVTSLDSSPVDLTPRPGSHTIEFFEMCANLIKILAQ
CAMK2D, sequence (Q13557 whole entry): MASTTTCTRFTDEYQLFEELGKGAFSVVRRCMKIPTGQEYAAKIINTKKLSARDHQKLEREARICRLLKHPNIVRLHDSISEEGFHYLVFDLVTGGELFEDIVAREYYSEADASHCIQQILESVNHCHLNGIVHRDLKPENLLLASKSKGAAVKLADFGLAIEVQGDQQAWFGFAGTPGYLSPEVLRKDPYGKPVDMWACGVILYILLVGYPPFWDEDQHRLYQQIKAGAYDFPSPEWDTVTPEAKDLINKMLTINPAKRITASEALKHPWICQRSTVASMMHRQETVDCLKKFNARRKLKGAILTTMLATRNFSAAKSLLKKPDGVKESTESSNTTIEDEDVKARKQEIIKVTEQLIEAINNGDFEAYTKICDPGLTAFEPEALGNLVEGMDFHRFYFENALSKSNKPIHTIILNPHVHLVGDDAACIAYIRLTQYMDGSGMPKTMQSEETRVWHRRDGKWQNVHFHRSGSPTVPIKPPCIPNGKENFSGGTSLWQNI

With `CNc1c(-c2ccc(C(=O)N3CCC(N4CCOCC4)CC3)cc2)cnc2[nH]cc(Cl)c12` [Compound 96, (4-(3-chloro-4-(methylamino)-1H-pyrrolo[2,3-b]pyridin-5-yl)phenyl)(4-morpholinopiperidin-1-yl)methanone], the remaining binding at 1 µM on AMPK-alpha1 came out at 75%; at FGFR3 it was 82%; at NDR2, 19%; at PIK4CB it was 58%; at CDK2, 100%; in [1], 100%. The remaining binding at 1 µM at KIT(V559D, T670I) was 27%; on MET(Y1235D), 83%; on CDC2L5, 100%; on PIK3CA(I800L), 64%; at DDR2 it was 79%; on CAMK2D, 100%. For the same compound, the remaining binding at 1 µM at MST1R was determined as 88%.

`O=C(c1ccc(-c2cnc3[nH]cc(Cl)c3c2NC2CCCC2)cc1)N1CCC(N2CCOCC2)CC1` [Compound 101, (4-(3-chloro-4-(cyclopentylamino)-1H-pyrrolo[2,3-b]pyridin-5-yl)phenyl)(4-morpholinopiperidin-1-yl)methanone]: the remaining binding at 1 µM at AMPK-alpha1 was determined as 78%; at FGFR3, 67%; on NDR2, 63%; on PIK4CB, 100%; at CDK2, 100%; in assay [1], 84%. The remaining binding at 1 µM at KIT(V559D, T670I) is 71%; at MET(Y1235D), 30%; on CDC2L5, 2.1%; on PIK3CA(I800L), 80%; on DDR2, 100%; at CAMK2D, 93%. The remaining binding at 1 µM at MST1R amounted to 77%.

On to `CNc1c(-c2cnn([C@H]3CCN(C(C)=O)C[C@@H]3F)c2)cnc2[nH]cc(Cl)c12` [Compound 77, 1-((3S,4S)-4-(4-(3-chloro-4-(methylamino)-1H-pyrrolo[2,3-b]pyridin-5-yl)-1H-pyrazol-1-yl)-3-fluoropiperidin-1-yl)ethan-1-one], for which the remaining binding at 1 µM stood at 100% at AMPK-alpha1; 64% at FGFR3; 21% on NDR2; 59% at PIK4CB; 100% at CDK2; 97% in [1]. Besides, the remaining binding at 1 µM turned out to be 9.7% at KIT(V559D, T670I); 56% on MET(Y1235D); 100% at CDC2L5; 566% at PIK3CA(I800L); 86% on DDR2; 100% on CAMK2D. The remaining binding at 1 µM at MST1R is 100%.
